The record followed here is US20230055961A1, “PENTAFLUOROBENZENESULFONAMIDE DERIVATIVES AND USES THEREOF” (Dunad Therapeutics Ltd., priority 2019, published 2023).

pIC50: −log10 of the molar value.

For experiment [1], the target named is T1, BTK (Homo sapiens, UniProt Q06187). The experiment in a line: Enzyme kinetic analysis of BTK inhibition (time-dependent inhibition). The conditions noted are these: 0.1 nM BTK, 500 μM ATP, 60-700 nM compound. Type of experiment: biochemical. The source says:
One of ordinary skill in the art will recognize that this is consistent with the irreversible inhibition of BTK by Compound 5-1.

The target of the next experiment is EGFR L850R (Homo sapiens, UniProt P00533). Briefly: In vitro kinase inhibition studies (Table 13), EGFR L850R. The format is biochemical.
The target of a further experiment is ERBB4 (Homo sapiens, UniProt Q15303). The experiment in a line: In vitro kinase inhibition studies (Table 13), ERBB4. The format is biochemical.
Chain of ERBB4 (Q15303 26-1308, species assumed): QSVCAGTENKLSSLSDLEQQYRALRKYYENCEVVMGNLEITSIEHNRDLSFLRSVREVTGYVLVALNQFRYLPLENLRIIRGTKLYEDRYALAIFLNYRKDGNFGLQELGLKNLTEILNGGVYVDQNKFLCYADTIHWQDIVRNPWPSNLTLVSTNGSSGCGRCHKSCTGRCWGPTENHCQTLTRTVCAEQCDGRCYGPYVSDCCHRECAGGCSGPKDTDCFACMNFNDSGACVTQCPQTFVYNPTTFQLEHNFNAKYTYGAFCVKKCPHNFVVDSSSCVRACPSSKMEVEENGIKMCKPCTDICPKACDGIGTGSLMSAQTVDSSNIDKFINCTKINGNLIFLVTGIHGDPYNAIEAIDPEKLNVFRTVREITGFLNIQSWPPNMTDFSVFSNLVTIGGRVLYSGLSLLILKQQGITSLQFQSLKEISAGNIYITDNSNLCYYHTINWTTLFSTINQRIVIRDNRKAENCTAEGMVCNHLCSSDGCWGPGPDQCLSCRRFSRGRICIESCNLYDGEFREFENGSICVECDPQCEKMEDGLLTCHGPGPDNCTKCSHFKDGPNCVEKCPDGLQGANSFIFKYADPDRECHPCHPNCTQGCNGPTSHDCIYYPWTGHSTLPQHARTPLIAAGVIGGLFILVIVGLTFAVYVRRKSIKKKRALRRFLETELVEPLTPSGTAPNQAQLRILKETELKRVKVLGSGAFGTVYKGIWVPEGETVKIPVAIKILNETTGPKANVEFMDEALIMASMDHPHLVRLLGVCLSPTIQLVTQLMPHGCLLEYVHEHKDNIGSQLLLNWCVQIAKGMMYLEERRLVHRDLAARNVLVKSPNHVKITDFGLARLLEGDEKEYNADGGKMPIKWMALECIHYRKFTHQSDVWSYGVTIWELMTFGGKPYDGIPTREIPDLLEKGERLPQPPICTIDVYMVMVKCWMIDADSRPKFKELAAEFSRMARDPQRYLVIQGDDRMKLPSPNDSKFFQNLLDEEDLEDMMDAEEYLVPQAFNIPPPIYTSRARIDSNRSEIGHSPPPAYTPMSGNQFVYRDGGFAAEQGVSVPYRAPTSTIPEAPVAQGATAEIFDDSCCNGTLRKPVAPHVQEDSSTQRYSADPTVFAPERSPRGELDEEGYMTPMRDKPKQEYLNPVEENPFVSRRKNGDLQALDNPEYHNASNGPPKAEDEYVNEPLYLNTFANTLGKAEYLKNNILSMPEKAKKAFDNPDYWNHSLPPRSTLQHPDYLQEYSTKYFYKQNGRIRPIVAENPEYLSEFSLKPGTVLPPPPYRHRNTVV
The target in a further experiment is T2, BMX (Homo sapiens, UniProt P51813).
T2 sequence (P51813 1-675): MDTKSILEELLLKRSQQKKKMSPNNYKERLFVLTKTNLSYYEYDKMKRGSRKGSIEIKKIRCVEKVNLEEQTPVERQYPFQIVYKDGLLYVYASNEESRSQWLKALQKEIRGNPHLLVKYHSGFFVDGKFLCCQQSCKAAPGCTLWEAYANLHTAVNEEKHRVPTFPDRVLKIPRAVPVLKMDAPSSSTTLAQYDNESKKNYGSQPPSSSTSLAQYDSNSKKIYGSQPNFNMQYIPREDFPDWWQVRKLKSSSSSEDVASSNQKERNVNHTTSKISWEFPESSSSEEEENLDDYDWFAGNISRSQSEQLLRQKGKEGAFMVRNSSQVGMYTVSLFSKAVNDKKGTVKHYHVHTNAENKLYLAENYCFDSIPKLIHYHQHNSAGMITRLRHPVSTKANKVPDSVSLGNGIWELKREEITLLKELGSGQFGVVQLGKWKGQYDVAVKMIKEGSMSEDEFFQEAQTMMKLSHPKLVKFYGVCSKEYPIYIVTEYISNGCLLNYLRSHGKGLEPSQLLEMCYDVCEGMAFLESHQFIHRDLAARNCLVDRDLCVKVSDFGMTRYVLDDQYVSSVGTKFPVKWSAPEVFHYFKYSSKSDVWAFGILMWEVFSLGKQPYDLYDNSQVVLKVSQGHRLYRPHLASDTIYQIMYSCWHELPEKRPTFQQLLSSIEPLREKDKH
Briefly: In vitro kinase inhibition studies (Table 9), BMX. The format is biochemical.

Another experiment has as its target FGFR2 (Homo sapiens, UniProt P21802). Briefly: In vitro kinase inhibition studies (Table 13), FGFR2. Type of experiment: biochemical.
Experiment [2] concerns normal pooled human fibroblasts. Briefly: IC50 of Ibrutinib analogs against normal human cells, pooled human fibroblasts (Table 14). The format is cell-based. The conditions noted are these: Fibroblast, Table 14, normal human cell line. On the procedure:
Anti-cancer efficacy of exemplary compounds of this application is assessed in vitro in different cancer cell lines. Cell viability is examined following treatment at various concentration of inhibitor (0.097656-50 μM) using a cell Titer-Blue cell viability assay. 1×10^4 cells (NHF cells)/well are plated in 96-well assay plates in culture medium. All cells are grown in DMEM, IMDM and RPMI-1640 supplemented with 10% FBS. After 24 hrs, test compounds and vehicle controls are added to appropriate wells so the final volume is […] in each well. The cells are cultured for the desired test exposure period (72 hrs) at 37° C. and 5% CO2. The assay plates are removed from 37° C. incubator and 20 μl/well of CellTiter-Blue® Reagent is added. The plates are incubated using standard cell culture conditions for 1-4 hours and the plates are shaken for 10 seconds and record fluorescence at 560/590 nm.
Therapeutic index=(IC50 human fibroblasts/IC50 RLcells)

The next experiment deals with EGFR (Homo sapiens, UniProt P00533). Briefly: In vitro kinase inhibition studies (Table 13), EGFR. The format is biochemical.
Chain of EGFR (P00533 25-1210, species assumed): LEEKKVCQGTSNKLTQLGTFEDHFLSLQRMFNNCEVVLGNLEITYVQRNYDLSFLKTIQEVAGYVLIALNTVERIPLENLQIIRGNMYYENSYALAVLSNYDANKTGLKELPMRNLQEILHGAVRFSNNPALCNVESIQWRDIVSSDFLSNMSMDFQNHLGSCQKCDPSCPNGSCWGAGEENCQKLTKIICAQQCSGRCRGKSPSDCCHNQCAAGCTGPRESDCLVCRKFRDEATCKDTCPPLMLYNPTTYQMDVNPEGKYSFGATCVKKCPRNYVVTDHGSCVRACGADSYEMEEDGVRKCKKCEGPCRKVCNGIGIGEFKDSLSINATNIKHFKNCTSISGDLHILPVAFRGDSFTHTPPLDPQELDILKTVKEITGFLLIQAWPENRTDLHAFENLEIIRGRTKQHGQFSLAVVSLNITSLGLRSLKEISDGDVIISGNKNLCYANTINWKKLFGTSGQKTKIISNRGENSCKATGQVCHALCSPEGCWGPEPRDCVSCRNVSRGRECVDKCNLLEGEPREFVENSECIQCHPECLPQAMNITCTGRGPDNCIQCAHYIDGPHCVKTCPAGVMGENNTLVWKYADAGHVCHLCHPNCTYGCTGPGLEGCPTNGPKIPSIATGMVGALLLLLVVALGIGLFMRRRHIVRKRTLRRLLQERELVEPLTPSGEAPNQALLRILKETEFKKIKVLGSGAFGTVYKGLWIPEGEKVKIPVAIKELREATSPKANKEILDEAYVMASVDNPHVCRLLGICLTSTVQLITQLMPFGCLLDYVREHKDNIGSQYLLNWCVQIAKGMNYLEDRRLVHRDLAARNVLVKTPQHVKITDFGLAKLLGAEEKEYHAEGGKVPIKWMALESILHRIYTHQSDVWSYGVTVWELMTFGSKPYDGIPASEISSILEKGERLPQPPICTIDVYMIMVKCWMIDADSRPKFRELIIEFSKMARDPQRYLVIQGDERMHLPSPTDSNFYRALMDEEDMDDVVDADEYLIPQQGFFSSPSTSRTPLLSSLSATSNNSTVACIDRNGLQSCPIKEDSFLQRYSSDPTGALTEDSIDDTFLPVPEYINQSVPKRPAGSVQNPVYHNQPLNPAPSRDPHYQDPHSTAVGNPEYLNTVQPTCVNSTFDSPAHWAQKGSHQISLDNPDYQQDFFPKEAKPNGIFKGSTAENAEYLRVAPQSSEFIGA
A further experiment addresses FGFR. Briefly: In vitro kinase inhibition studies (Table 13), FGFR. The format is biochemical.
The target in another experiment is FGFR1 (Homo sapiens, UniProt P11362). Briefly: In vitro kinase inhibition studies (Table 9), FGFR1. The format is biochemical.
The target in experiment [3] is T1, BTK. Briefly: In vitro BTK inhibition, biochemical IC50 (no preincubation). The following applies: Table 7. On the procedure: IC50 Values (nM) for the Inhibition of BTK Activity
In vitro BTK and JAK3 inhibition studies are shown in Table 7 and Table 8 (no preincubation).

Another experiment deals with MAP2K7 (Homo sapiens, UniProt O14733). The experiment in a line: In vitro kinase inhibition studies (Table 13), MAP2K7. Type of experiment: biochemical.
Chain of MAP2K7 (O14733 whole entry, species assumed): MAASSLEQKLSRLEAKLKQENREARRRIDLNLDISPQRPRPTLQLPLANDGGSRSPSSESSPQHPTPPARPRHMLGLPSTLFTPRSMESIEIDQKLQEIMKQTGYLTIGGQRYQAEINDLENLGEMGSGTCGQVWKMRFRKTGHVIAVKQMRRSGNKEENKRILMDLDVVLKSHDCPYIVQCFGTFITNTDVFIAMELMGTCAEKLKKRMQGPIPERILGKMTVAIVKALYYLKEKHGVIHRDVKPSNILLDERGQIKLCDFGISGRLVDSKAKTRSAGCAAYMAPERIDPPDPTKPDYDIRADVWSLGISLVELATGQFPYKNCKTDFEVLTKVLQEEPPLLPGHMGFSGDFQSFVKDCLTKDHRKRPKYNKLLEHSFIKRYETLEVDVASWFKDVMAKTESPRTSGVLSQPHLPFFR
Another experiment addresses SRC (Homo sapiens, UniProt P12931). Briefly: In vitro kinase inhibition studies (Table 13), SRC. The format is biochemical.
Another experiment has as its target BLK (Homo sapiens, UniProt P51451). Briefly: In vitro kinase inhibition studies (Table 13), BLK. Type of experiment: biochemical.

As usually defined, the IC50 is the concentration that inhibits the measured activity by half. Low readings indicate higher potency, high ones lower potency. A word on the pIC50: it is the IC50 on a negative log10 scale, so that one unit is a factor of ten. High values mean a small IC50, low ones a large IC50.

T1 sequence (Q06187 whole entry, species assumed): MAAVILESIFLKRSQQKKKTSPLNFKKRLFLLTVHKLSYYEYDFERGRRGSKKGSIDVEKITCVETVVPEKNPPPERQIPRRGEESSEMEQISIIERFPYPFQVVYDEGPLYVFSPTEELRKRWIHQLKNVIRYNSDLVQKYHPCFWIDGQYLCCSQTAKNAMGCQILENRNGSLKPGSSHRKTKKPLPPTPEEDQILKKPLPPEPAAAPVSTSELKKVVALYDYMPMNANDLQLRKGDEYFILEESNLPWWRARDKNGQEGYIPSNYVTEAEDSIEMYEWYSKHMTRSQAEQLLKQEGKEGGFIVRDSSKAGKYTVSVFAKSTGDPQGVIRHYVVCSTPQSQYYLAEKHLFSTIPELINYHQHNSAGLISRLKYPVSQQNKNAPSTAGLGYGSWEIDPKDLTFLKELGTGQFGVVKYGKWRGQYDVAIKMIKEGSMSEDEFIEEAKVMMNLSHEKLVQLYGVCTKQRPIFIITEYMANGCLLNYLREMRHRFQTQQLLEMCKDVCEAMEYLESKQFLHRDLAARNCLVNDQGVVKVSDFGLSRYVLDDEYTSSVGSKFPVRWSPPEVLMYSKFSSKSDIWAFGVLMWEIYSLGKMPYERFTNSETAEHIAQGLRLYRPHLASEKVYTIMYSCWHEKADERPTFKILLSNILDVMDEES
Chain of BLK (P51451 whole entry, species assumed): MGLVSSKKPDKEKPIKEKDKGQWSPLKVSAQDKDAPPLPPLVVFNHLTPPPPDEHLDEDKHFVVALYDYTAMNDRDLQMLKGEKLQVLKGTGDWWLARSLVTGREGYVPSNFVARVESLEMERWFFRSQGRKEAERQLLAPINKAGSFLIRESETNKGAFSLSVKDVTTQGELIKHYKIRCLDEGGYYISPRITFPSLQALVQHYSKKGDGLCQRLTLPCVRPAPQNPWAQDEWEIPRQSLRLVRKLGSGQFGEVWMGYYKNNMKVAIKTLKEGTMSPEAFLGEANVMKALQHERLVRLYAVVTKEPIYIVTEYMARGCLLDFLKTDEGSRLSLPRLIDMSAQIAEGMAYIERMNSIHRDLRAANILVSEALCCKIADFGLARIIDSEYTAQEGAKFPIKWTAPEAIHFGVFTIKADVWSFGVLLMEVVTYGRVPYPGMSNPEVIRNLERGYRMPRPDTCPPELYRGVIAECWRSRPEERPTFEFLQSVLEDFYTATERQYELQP
Chain of SRC (P12931 whole entry, species assumed): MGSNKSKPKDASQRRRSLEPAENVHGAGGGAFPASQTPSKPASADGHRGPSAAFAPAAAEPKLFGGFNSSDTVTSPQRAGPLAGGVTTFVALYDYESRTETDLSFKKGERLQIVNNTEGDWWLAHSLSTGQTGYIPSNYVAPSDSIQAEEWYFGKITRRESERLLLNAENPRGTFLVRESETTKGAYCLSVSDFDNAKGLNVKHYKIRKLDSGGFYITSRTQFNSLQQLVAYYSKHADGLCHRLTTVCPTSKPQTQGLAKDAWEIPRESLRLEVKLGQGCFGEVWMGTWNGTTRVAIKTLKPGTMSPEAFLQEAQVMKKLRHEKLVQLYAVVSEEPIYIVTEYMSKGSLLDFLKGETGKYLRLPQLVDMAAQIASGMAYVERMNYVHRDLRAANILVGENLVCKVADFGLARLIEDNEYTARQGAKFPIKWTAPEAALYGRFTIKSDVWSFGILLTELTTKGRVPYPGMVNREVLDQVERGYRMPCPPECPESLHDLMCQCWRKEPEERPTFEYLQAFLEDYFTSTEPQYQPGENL

Take `Nc1ncnc2c1c(-c1ccc(Oc3ccccc3)cc1)nn2[C@@H]1CCCN(S(=O)(=O)c2c(F)c(F)c(F)c(F)c2F)C1` [Compound 5-1, (R)-1-(1-((perfluorophenyl)sulfonyl)piperidin-3-yl)-3-(4-phenoxyphenyl)-1H-pyrazolo[3,4-d]pyrimidin-4-amine]: at BTK [1], the “inhibition profile of BTK by enzyme kinetic analysis” value is on record as “time-dependent inhibition”. The IC50 lay within 100 to 1000 nM against EGFR L850R; 100 to 1000 nM at ERBB4; 100 to 1000 nM at FGFR2; 100 to 1000 nM on EGFR; 100 to 1000 nM against FGFR; 10 to 100 nM against MAP2K7. For the same compound, the IC50 on SRC and at BLK was 100 to 1000 nM throughout. In addition, the pIC50 against BMX was 8.00 to 10.00; in experiment [2], 5.21; at FGFR1 it was 6.52 to 8.00; against BTK [3] it was 7.00 to 8.00.
